Data on two compounds can be found in patent publication US11708391B2, “Rapaglutins, novel inhibitors of GLUT and use thereof” (The Johns Hopkins University, priority 2016, dated 2023).

pIC50: −log10 of the molar value. Read-outs that look alike come from different tables or passages of the source.

One data set deals with HEK 293T FLAG-Glut1. Kind of data set: alamar blue assay, HEK 293T Glut1 overexpression cells. Type of data set: cell-based. The conditions noted are these: for pIC50: HEK 293T FLAG-Glut1. The source says: FIGS. 20A-20C. E11 is a specific inhibitor of Glut1. (a) Glut1 and Glut3 protein levels of wild type, Glut1 and Glut3 overexpression cells analyzed by western blotting. (b)(c) Inhibition of cell proliferation in HEK293T, Glut1 and Glut3 overexpression cells by A18 and E11.
(§1) Up to now, at least 14 different isoforms of GLUTs have been identified in human cells. It was then asked whether A18 and E11 are specific inhibitors of GLUT1. To answer this question, colon cancer DLD-1 wild type and GLUT1 gene knock out cell lines were chosen as a cell model (FIG. 4a). […] GLUTs that are most relevant to cancer are Glut1 and Glut3. To obtain additional evidence, Glut1 and Glut3 in HEK 293T cells were overexpressed and an alamar blue cell viability assay was performed again. […] (see FIGS. 4, 19, 20, 26; Table 4).

In another data set the test system is DLD-1 wild type. Description: alamar blue cell viability assay, DLD-1 wild type. Type of data set: cell-based.
Description: FIGS. 19A-19C. E11 is a specific inhibitor of Glut1. (a)(b) Inhibition of cell proliferation in A549, DLD-1 wild type and Glut1 knock out cells by A18 and E11. (c) Potency of A18 and E11 against the alamar blue assay in A549, DLD-1 wild type and Glut1 knock out cells.
as §1

Data set [1] relates to pancreatic cancer PANC10.05. Kind of data set: alamar blue assay, PANC10.05. The conditions noted are these: PANC 10.05. Type of data set: cell-based, human. An excerpt: (§2) Dose-dependent inhibition of cell proliferation by A18 and E11 was next evaluated in several other human cancer cell lines, including breast cancer HCC1954, pancreatic cancer PANC10.05, leukemia Jurkat T and colon cancer RKO (FIGS. 1b and 1c). […] (FIGS. 1 and 9; Table 3)
A general note: Alamar Blue is a resazurin reagent that responds to reducing activity.

For data set [2], the system named is HEK 293T cells.
For a further data set, the system named is breast cancer HCC1954. Description: alamar blue assay, HCC1954. Type of data set: cell-based, human.
Description: as §2

The next data set relates to leukemia Jurkat T. Kind of data set: alamar blue assay, Jurkat T. Type of data set: cell-based, human.
Description: as §2

Another data set deals with SRE. Description: SRE reporter gene assay. Type of data set: cell-based. An excerpt: (§3) FIGS. 28A-28D. (a) A18 and E11 inhibit NFAT and A18, but not E11, stimulates SRE reporter gene signal. (b) E11 inhibits NFAT, NF-κB and IL2, but not MEF-2 or AP-1 pathways, in Jurkat T cells. (c) Glucose inhibitor stimulates SRE reporter gene signal.
(In a reporter assay the amount or activity of a reporter protein is the signal.)

Another data set deals with HEK293T. Description: alamar blue assay, HEK293T. Type of data set: cell-based.
Description: as §2, §1

The next data set has as its target T1, GLUT1 (Homo sapiens, UniProt P11166).
T1 construct: endogenous in cells; host or cells: erythrocyte (RBC-derived) ghosts
T1 sequence (P11166 1-492): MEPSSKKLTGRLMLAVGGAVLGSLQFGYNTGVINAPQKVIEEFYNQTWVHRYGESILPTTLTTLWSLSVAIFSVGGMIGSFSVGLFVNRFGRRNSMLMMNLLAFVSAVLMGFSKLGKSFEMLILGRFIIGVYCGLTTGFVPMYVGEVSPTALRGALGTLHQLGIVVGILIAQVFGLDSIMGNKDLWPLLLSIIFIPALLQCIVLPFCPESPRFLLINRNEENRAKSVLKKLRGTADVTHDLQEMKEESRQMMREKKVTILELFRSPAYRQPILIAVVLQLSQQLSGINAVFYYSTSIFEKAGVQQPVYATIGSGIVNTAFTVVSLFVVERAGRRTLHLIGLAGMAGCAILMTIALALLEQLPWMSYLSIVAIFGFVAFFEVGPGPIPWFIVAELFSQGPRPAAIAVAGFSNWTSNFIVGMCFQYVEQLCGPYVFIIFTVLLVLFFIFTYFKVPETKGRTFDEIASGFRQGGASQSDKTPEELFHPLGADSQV
Kind of data set: pulldown with biotin-rapafucin conjugates from RBC-derived ghosts lysate, anti-GLUT1 Western blot. Type of data set: binding. The conditions noted are these: for binding to GLUT1 in pulldown assay: RBC-derived ghosts cell lysate, Western blot; for competition of the binding of the other rapafucin's probe to GLUT1: pulldown, A18 probe versus E11 and vice versa. An excerpt: FIGS. 6A-6B. Identification of direct interaction of A18 and E11 to Glut1. Glut1 protein levels of A18 (a) or E11 (b) pull down samples analyzed by western blotting.
After showing that GLUT1 was very likely to be the target of A18 and E11, the direct interaction of A18 and E11 to GLUT1 was then examined. A series of biotin or diazrine-alkyne rapafucin conjugates through different positions were synthesized. […] Importantly, the binding of the biotin-rapafucin probe to GLUT1 is competed by rapafucin. […] (FIGS. 6, 21, 22 and 27)
(In general: In western blotting, separated proteins are transferred to a membrane and probed.)

The test system of another data set is NF-κB. Description: NF-κB pathway reporter in Jurkat T cells. Type of data set: cell-based.
Description: as §3

For data set [3], the system named is HEK 293T cells. Description: Western blot for DNA damage and apoptosis markers in HEK 293T. The conditions noted are these: 72 h (DNA damage), 24 h (apoptosis).

As a reminder, the pIC50 is the negative decadic logarithm of the IC50, by convention in mol/L. Higher therefore signals a low IC50. For `CC[C@@H](C)[C@H]1C(=O)NCC(=O)N(C)CC/C=C/C(=O)OCC(C)(C)C(=O)C(=O)N2CCCC[C@H]2C(=O)O[C@H](CCc2ccc(OC)c(OC)c2)c2cccc(c2)NC(=O)CCC(=O)N(C)[C@@H](CC(C)C)C(=O)N[C@H](Cc2ccccc2)C(=O)N1C` [A18], the pIC50 with HEK 293T FLAG-Glut1 (Homo sapiens) is 6.24; in [1] (Homo sapiens, Panc1005) it was 6.92; with breast cancer HCC1954 (Homo sapiens), 6.96; with leukemia Jurkat T (Homo sapiens) it was 6.88; in the data set with HEK293T (Homo sapiens, HEK-293T, HEK293T, Table 3) it was 6.96; in the data set with HEK293T (Homo sapiens, HEK-293T, HEK 293T, Table 4), 7.16. The “inhibition of cell proliferation, alamar blue” value with DLD-1 wild type is “strongly inhibited”. For the same compound, the “DNA damage or apoptosis (phosphor-p53, active caspase 3, 7 and 9)” value in the data set with HEK 293T cells [2] is “do not induce DNA damage or apoptosis”. Moreover, the “SRE reporter gene signal” value with SRE was “stimulates”. Moreover, the “binding to GLUT1 in pulldown assay” value on GLUT1 is “can bind directly to GLUT1”. The “competition of the binding of the other rapafucin's probe to GLUT1” value at GLUT1 was “vice versa”.

Consider Gly-^MSerBu-Nal-^MAla [E11], for which, in the data set with HEK 293T FLAG-Glut1 (GLUT1 overexpression HEK 293T cells), the “inhibition in alamar blue cell viability assay” value is listed as “kept partial inhibitory activity”. Besides, the pIC50 in the data set on HEK 293T FLAG-Glut1 is 6.18; in data set [1], 7.10; with breast cancer HCC1954 it was 6.80; with leukemia Jurkat T it was 6.60; in the data set on HEK293T (HEK293T, Table 3) it was 6.81; in the data set on HEK293T (HEK 293T, Table 4), 7.07. The NF-κB pathway entry in the data set on NF-κB is given as “inhibits”. For the same compound, the “inhibition of cell proliferation, alamar blue” value in the data set with DLD-1 wild type is on record as “kept inhibitory activity”. The “DNA damage or apoptosis (phosphor-p53, active caspase 3, 7 and 9)” value in the data set with HEK 293T cells [3] was “do not induce DNA damage or apoptosis”. The “binding to GLUT1 in pulldown assay” value on GLUT1 was “can bind directly to GLUT1”. The “competition of the binding of the other rapafucin's probe to GLUT1” value at GLUT1 is “cannot be competed”.
